# According to ChEMBL document CHEMBL1201862, “PubChem BioAssay data set” (2004):
#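 Test compounds were applied to cells in 96-well plates for 48 hours at 5 doses. GI50 is the concentration that inhibits growth by half.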 Active and inactive are the calls of the source. Cut-off read from the data, not from the text of the source: active = GI50 up to about 1.1 µM and inactive = higher.
# Assays:
# Assay in all cases: NCI-60 cell line screen, 48 h
# KM12 = test system: KM12
# SF-295 = test system: SF-295
# LXFL 529 = test system: LXFL 529
# HCT-15 = test system: HCT-15
# M19-MEL = test system: M19-MEL
# SNB-19 = test system: SNB-19
# DLD-1 = test system: DLD-1
# HOP-62 = test system: HOP-62
# TK-10 = test system: TK-10
# DMS-273 = test system: DMS-273
# UACC-62 = test system: UACC-62
# HCT-116 = test system: HCT-116
# SK-MEL-28 = test system: SK-MEL-28
# U-251 = test system: U-251
# CCRF-CEM = test system: CCRF-CEM
# RPMI-8226 = test system: RPMI-8226
# UACC-257 = test system: UACC-257
# EKVX = test system: EKVX
# SNB-78 = test system: SNB-78
# A549 = test system: A549
# HT-29 = test system: HT-29
# SW-620 = test system: SW-620
# HL-60 = test system: HL-60
# SNB-75 = test system: SNB-75
# 786-0 = test system: 786-0
# OVCAR-8 = test system: OVCAR-8
# XF498 = test system: XF498
# RXF 631 = test system: RXF 631
# KM-20L2 = test system: KM-20L2
# ACHN = test system: ACHN
# SK-MEL-5 = test system: SK-MEL-5
# NCI-H23 = test system: NCI-H23
# MOLT-4 = test system: MOLT-4
# DMS-114 = test system: DMS-114
# K562 = test system: K562
# HOP-18 = test system: HOP-18
# UO-31 = test system: UO-31
# SF-268 = test system: SF-268
# NCI-H460 = test system: NCI-H460
# HOP-92 = test system: HOP-92
# NCI-H226 = test system: NCI-H226
# M14 = test system: M14
# OVCAR-5 = test system: OVCAR-5
# SF-539 = test system: SF-539
# CAKI-1 = test system: CAKI-1
# SK-OV-3 = test system: SK-OV-3
# Malme-3M = test system: Malme-3M
# OVCAR-4 = test system: OVCAR-4
# SN12C = test system: SN12C
# LOX IMVI = test system: LOX IMVI
# A498 = test system: A498
# SK-MEL-2 = test system: SK-MEL-2
# COLO 205 = test system: COLO 205
# RXF 393 = test system: RXF 393
# NCI-H522 = test system: NCI-H522
# IGROV-1 = test system: IGROV-1
# OVCAR-3 = test system: OVCAR-3
# SR = test system: SR
# HCC 2998 = test system: HCC 2998
structure (smiles),measurement,setting,value
CCN(CC)Cc1cc(Nc2c3ccccc3nc3c4ccccc4n(C)c23)ccc1O,GI50,KM12,7.73 µM (inactive)
same,GI50,SF-295,10 µM (inactive)
same,GI50,LXFL 529,4.8 µM (inactive)
same,GI50,HCT-15,8.85 µM
same,GI50,M19-MEL,7.85 µM (inactive)
same,GI50,SNB-19,16.7 µM (inactive)
same,GI50,DLD-1,6.76 µM (inactive)
same,GI50,HOP-62,12 µM (inactive)
same,GI50,TK-10,13.9 µM (inactive)
same,GI50,DMS-273,5.64 µM (inactive)
same,GI50,UACC-62,6.9 µM (inactive)
same,GI50,HCT-116,7.16 µM (inactive)
same,GI50,SK-MEL-28,4.43 µM (inactive)
same,GI50,U-251,10.8 µM (inactive)
same,GI50,CCRF-CEM,2.05 µM (inactive)
same,GI50,RPMI-8226,3.67 µM (inactive)
same,GI50,UACC-257,10.4 µM (inactive)
same,GI50,EKVX,15.6 µM (inactive)
same,GI50,SNB-78,18.6 µM (inactive)
same,GI50,A549,12.9 µM (inactive)
same,GI50,HT-29,5.32 µM (inactive)
same,GI50,SW-620,6.07 µM (inactive)
same,GI50,HL-60,3.46 µM (inactive)
same,GI50,SNB-75,13.6 µM (inactive)
same,GI50,786-0,3.76 µM (inactive)
same,GI50,OVCAR-8,9.25 µM (inactive)
same,GI50,XF498,4.84 µM (inactive)
same,GI50,RXF 631,3.18 µM (inactive)
same,GI50,KM-20L2,5.45 µM (inactive)
same,GI50,ACHN,11.2 µM (inactive)
same,GI50,SK-MEL-5,2.61 µM (inactive)
same,GI50,NCI-H23,15.1 µM (inactive)
same,GI50,MOLT-4,2.77 µM (inactive)
same,GI50,DMS-114,6.37 µM (inactive)
same,GI50,K562,2.51 µM (inactive)
same,GI50,HOP-18,14.1 µM (inactive)
same,GI50,UO-31,9.95 µM (inactive)
same,GI50,SF-268,16.6 µM (inactive)
same,GI50,NCI-H460,7.91 µM (inactive)
same,GI50,HOP-92,5.9 µM (inactive)
same,GI50,NCI-H226,29.2 µM (inactive)
same,GI50,M14,1.92 µM (inactive)
same,GI50,OVCAR-5,10.1 µM (inactive)
same,GI50,SF-539,3.87 µM (inactive)
same,GI50,CAKI-1,11.2 µM (inactive)
same,GI50,SK-OV-3,16.7 µM (inactive)
same,GI50,Malme-3M,13.7 µM (inactive)
same,GI50,OVCAR-4,14 µM (inactive)
same,GI50,SN12C,13.9 µM (inactive)
same,GI50,LOX IMVI,2.83 µM (inactive)
same,GI50,A498,13.7 µM (inactive)
same,GI50,SK-MEL-2,20.7 µM (inactive)
same,GI50,COLO 205,4.73 µM (inactive)
same,GI50,RXF 393,11.3 µM (inactive)
same,GI50,NCI-H522,2.58 µM (inactive)
same,GI50,IGROV-1,15.4 µM (inactive)
O=C1NC2C(O)CCCCC2C12CCCCC2 (stereo not given),GI50,KM12,> 100 µM (inactive)
same,GI50,SF-295,> 100 µM (inactive)
same,GI50,OVCAR-3,> 100 µM (inactive)
same,GI50,LXFL 529,> 100 µM (inactive)
same,GI50,HCT-15,> 100 µM
same,GI50,M19-MEL,> 100 µM (inactive)
same,GI50,SNB-19,> 100 µM (inactive)
same,GI50,DLD-1,> 100 µM (inactive)
same,GI50,HOP-62,> 100 µM (inactive)
same,GI50,DMS-273,> 100 µM (inactive)
same,GI50,UACC-62,> 100 µM (inactive)
same,GI50,HCT-116,> 100 µM (inactive)
same,GI50,SK-MEL-28,> 100 µM (inactive)
same,GI50,U-251,> 100 µM (inactive)
same,GI50,RPMI-8226,> 100 µM (inactive)
same,GI50,UACC-257,> 100 µM (inactive)
same,GI50,EKVX,> 100 µM (inactive)
same,GI50,SNB-78,> 100 µM (inactive)
same,GI50,A549,> 100 µM (inactive)
same,GI50,HT-29,> 100 µM (inactive)
same,GI50,SW-620,> 100 µM (inactive)
same,GI50,HL-60,> 100 µM (inactive)
same,GI50,SNB-75,> 100 µM (inactive)
same,GI50,786-0,> 100 µM (inactive)
same,GI50,OVCAR-8,> 100 µM (inactive)
same,GI50,XF498,> 100 µM (inactive)
same,GI50,RXF 631,> 100 µM (inactive)
same,GI50,ACHN,> 100 µM (inactive)
same,GI50,SK-MEL-5,> 100 µM (inactive)
same,GI50,NCI-H23,> 100 µM (inactive)
same,GI50,MOLT-4,> 100 µM (inactive)
same,GI50,DMS-114,> 100 µM (inactive)
same,GI50,K562,> 100 µM (inactive)
same,GI50,HOP-18,> 100 µM (inactive)
same,GI50,UO-31,> 100 µM (inactive)
same,GI50,SF-268,> 100 µM (inactive)
same,GI50,NCI-H460,> 100 µM (inactive)
same,GI50,HOP-92,> 100 µM (inactive)
same,GI50,M14,> 100 µM (inactive)
same,GI50,OVCAR-5,> 100 µM (inactive)
same,GI50,SF-539,> 100 µM (inactive)
same,GI50,CAKI-1,> 100 µM (inactive)
same,GI50,SK-OV-3,> 100 µM (inactive)
same,GI50,Malme-3M,> 100 µM (inactive)
same,GI50,OVCAR-4,> 100 µM (inactive)
same,GI50,SN12C,> 100 µM (inactive)
same,GI50,LOX IMVI,> 100 µM (inactive)
same,GI50,A498,> 100 µM (inactive)
same,GI50,SK-MEL-2,> 100 µM (inactive)
same,GI50,COLO 205,> 100 µM (inactive)
same,GI50,RXF 393,> 100 µM (inactive)
same,GI50,NCI-H522,> 100 µM (inactive)
same,GI50,IGROV-1,> 100 µM (inactive)
CCC1CN2CCc3cc(OC)c(OC)cc3C2CC1CC1c2cc(OC)c(OC)cc2CCN1C(=O)C1CCCN1 (stereo not given),GI50,KM12,35.2 µM (inactive)
same,GI50,SF-295,41 µM (inactive)
same,GI50,OVCAR-3,27.4 µM (inactive)
same,GI50,LXFL 529,24.5 µM (inactive)
same,GI50,HCT-15,31.7 µM
same,GI50,M19-MEL,19.2 µM (inactive)
same,GI50,SNB-19,14.9 µM (inactive)
same,GI50,DLD-1,30.1 µM (inactive)
same,GI50,HOP-62,32.5 µM (inactive)
same,GI50,TK-10,45.4 µM (inactive)
same,GI50,DMS-273,35.3 µM (inactive)
same,GI50,HCT-116,19.5 µM (inactive)
same,GI50,SK-MEL-28,18.8 µM (inactive)
same,GI50,U-251,23.9 µM (inactive)
same,GI50,CCRF-CEM,26.1 µM (inactive)
same,GI50,RPMI-8226,50.5 µM (inactive)
same,GI50,SR,19.1 µM (inactive)
same,GI50,UACC-257,17.2 µM (inactive)
same,GI50,EKVX,36.6 µM (inactive)
same,GI50,SNB-78,47.4 µM (inactive)
same,GI50,A549,26.4 µM (inactive)
same,GI50,HT-29,27.4 µM (inactive)
same,GI50,SW-620,28.8 µM (inactive)
same,GI50,HL-60,19.3 µM (inactive)
same,GI50,SNB-75,26 µM (inactive)
same,GI50,786-0,17.1 µM (inactive)
same,GI50,OVCAR-8,38.8 µM (inactive)
same,GI50,XF498,18.8 µM (inactive)
same,GI50,RXF 631,28.7 µM (inactive)
same,GI50,ACHN,28.7 µM (inactive)
same,GI50,SK-MEL-5,17.3 µM (inactive)
same,GI50,NCI-H23,32.5 µM (inactive)
same,GI50,MOLT-4,32.4 µM (inactive)
same,GI50,K562,20.5 µM (inactive)
same,GI50,HOP-18,33.7 µM (inactive)
same,GI50,UO-31,21.5 µM (inactive)
same,GI50,SF-268,32.8 µM (inactive)
same,GI50,NCI-H460,25.9 µM (inactive)
same,GI50,HOP-92,28.7 µM (inactive)
same,GI50,NCI-H226,31.3 µM (inactive)
same,GI50,M14,14.5 µM (inactive)
same,GI50,OVCAR-5,53 µM (inactive)
same,GI50,SF-539,20.3 µM (inactive)
same,GI50,CAKI-1,6.44 µM (inactive)
same,GI50,HCC 2998,23.9 µM (inactive)
same,GI50,SK-OV-3,29.4 µM (inactive)
same,GI50,Malme-3M,21.4 µM (inactive)
same,GI50,OVCAR-4,25.5 µM (inactive)
same,GI50,SN12C,37.5 µM (inactive)
same,GI50,LOX IMVI,24.9 µM (inactive)
same,GI50,A498,28.6 µM (inactive)
same,GI50,SK-MEL-2,27.8 µM (inactive)
same,GI50,COLO 205,13 µM (inactive)
same,GI50,RXF 393,33.5 µM (inactive)
same,GI50,NCI-H522,16.3 µM (inactive)
same,GI50,IGROV-1,28.4 µM (inactive)
